In US9273276B2, “Devices and methods for pharmacokinetic-based cell culture system” (priority 2001, dated 2016):
“Also recorded” adds a separate entry of the source.

Key:
HCT116 cells [1] = assay: APOPTAG (TUNEL) apoptosis assay on microscale chip (HepG2/C3A liver, HCT116 target tissues); type: cell-based, human; details: 1 μM, 24 hour exposure, compared to untreated controls
Excerpt: (§1) In contrast to annexin V labeling, the APOPTAG™ kit (Intergen Co., MA) uses terminal deoxynucleotidyl transferase to label free 3′-OH DNA termini exposed during apoptotic DNA degradation and visualization using immunofluorescence (Li, X., Traganos, F., Melamed, M. R., and Darzynkiewicz, Z. (1995). Single-step procedure for labeling DNA strand breaks with flourescein- or BODIPY-conjugated deoxynucleotides: detection of apoptosis and bromodeoxyuridine incorporation. Cytometry 20, 172-180). Although this method is highly specific for apoptosis, the procedure cannot be done on-chip due to the fixation and incubation steps. Briefly, microscale chips were run under specified experimental conditions, the cell chips were removed from their housing units, fixed in 1% paraformaldehyde and processed with the APOPTAG™ kit using the manufacturer's protocol.
(§2) Two different assays to detect apoptosis were investigated. The first assay was the immunofluorescence-based terminal deoxynucleotidyl transferase […] nick end labeling (TUNEL) technique available in kit form as APOPTAG™ (Intergen Co., MA) (see Methods section). The assay was first optimized using cells grown on glass coverslips. Briefly, HepG2/C3A cells were seeded onto poly-D-lysine treated glass coverslips and treated with and without staurosporine. Coverslips were processed as described (see Methods section).

HepG2/C3A cells [2] = assay: APOPTAG (TUNEL) apoptosis assay, HepG2/C3A cells on glass coverslips; type: cell-based, human; details: 1 μM, 24-hour incubation, compared to untreated controls
Excerpt: as §1, §2

HepG2/C3A cells [3] = assay: LIVE/DEAD assay, HepG2/C3A cells on poly-D-lysine treated glass coverslips; type: cell-based, human; details: 1 μM, 24 hours
Excerpt: (§3) LIVE/DEAD stain is a two-component stain consisting of calcein AM and ethidium homodimer. Living cells actively hydrolyze the acetoxymethyl ester (AM) moiety of calcein AM to produce bright green fluorescence of calcein. In contrast, cells that have compromised membrane integrity allow the normally membrane impermeant ethidium homodimer to stain the nucleus of dead or dying cells fluorescent red. The cell permeant nuclear stain, Hoechst 33342 acts as a general stain for all cells. Together with the appropriate filter sets, living cells fluoresce green, dying or dead cells red, and all cells are quantified by a blue nuclear fluorescence. For experiments described herein, trypan blue was used at 0.2% (w/v), calcein AM at 1:20,000, propidium iodide at 1:5,000, and Hoechst 33342 at 10 μg/ml. Cells were visualized with a M2Bio stereofluorescence microscope (Zeiss). All experiments were repeated at least three times and measurements done in triplicate.
The LIVE/DEAD assay was optimized (see Methods section) using cells grown on glass coverslips. Briefly, HepG2/C3A cells were seeded onto poly-D-lysine treated glass coverslips and treated with and without 1 μM staurosporine for 24 hours. […]

HCT116 cells [4] = assay: LIVE/DEAD cytotoxicity assay on the microscale chip system (HepG2/C3A liver, HCT116 target tissues); type: cell-based, human; details: 1 μM, 24 hour treatment, compared to untreated control cell chips
Excerpt: as §3
Two different assays to detect apoptosis were investigated. The first assay was the immunofluorescence-based terminal deoxynucleotidyl transferase BrdU nick end labeling (TUNEL) technique available in kit form as APOPTAG™ (Intergen Co., MA) (see Methods section).

[5] = system: HepG2/C3A cells in the liver compartment and HCT116 cells in the target tissues compartment; assay: Annexin V-FITC apoptosis assay on microscale chip system; type: cell-based, human; details: 1 μM, 6-hour treatment, compared to untreated control cell chips
Protocol: With the microscale chip, annexin V-FITC labeling was visualized directly on-chip, by first flushing the system with PBS, then recirculating annexin V-FITC (10 μg/ml in annexin V binding buffer, Clontech) for 30 min. Cells were then visualized directly using a FITC filter set.
Briefly, the microscale chip cell chips were seeded with HepG2/C3A cells in the liver compartment and HCT116 cells in the target tissues compartment. Cell chips were loaded onto the microscale chip system and treated with and without 1 μM staurosporine as described above. After a 6-hour incubation, the re-circulating medium was switched to PBS containing Annexin V-FITC and Hoechst 33342 and allowed to flow through the system for 30 minutes. Cell chips were removed from the acrylic housing and visualized under a fluorescent microscope. Cells were visualized under a fluorescent microscope and fluorescent images of identical fields were obtained using the appropriate filter sets.

[6] = system: HCT-116 human colon cancer cells; details: for cell death of HCT-116 cells on chip without liver compartment cells: chips seeded with HCT-116 cells only, no cells in liver compartment, 24 hours
Protocol: FIG. 16 Tegafur dose response. […] The chips were treated with indicated concentrations of tegafur for 24 hours. The first graph (FIG. 16A) is a plot of percentage dead cells vs. tegafur or 5-FU concentration after 24 hours of re-circulation on the chip. The second graph (FIG. 16B) is a similar dose response using a traditional in vitro cell culture assay with HCT 116 cells using a 48 hour exposure. HCT-116 cells were seeded on poly-lysine treated glass coverslips and exposed to either tegafur or 5-FU at the indicated concentrations. After a 48 hr incubation, coverslips were treated as described above and the percentage of cell death was determined.
as §3
[…] Tegafur was added to the re-circulating medium at various concentrations for 24 hours and the cells labeled with Hoechst 33342, a membrane permeable DNA dye, and ethidium homodimer, a membrane impermeable DNA dye (see Methods Section).

HCT-116 cells = assay: Traditional in vitro cell culture assay, HCT-116 cells on poly-lysine treated glass coverslips; type: cell-based, human; details: for cell death of HCT-116 cells, traditional cell culture assay: coverslips, no liver cells, 48 hr exposure
Protocol: FIG. 16 Tegafur dose response. Chips were seeded with HepG2-C3A cells in the liver compartment and HCT-116 colon cancer cells in the target tissues compartment. The chips were treated with indicated concentrations of tegafur for 24 hours. The first graph (FIG. 16A) is a plot of percentage dead cells vs. tegafur or 5-FU concentration after 24 hours of re-circulation on the chip. The second graph (FIG. 16B) is a similar dose response using a traditional in vitro cell culture assay with HCT 116 cells using a 48 hour exposure. HCT-116 cells were seeded on poly-lysine treated glass coverslips and exposed to either tegafur or 5-FU at the indicated concentrations. After a 48 hr incubation, coverslips were treated as described above and the percentage of cell death was determined.
To measure the cytotoxic effects of tegafur against colon cancer cells, the microscale chip was prepared with HepG2-C3A cells in the liver compartment and HCT-116 human colon cancer cells in the target tissue compartment. Tegafur was added to the re-circulating medium at various concentrations for 24 hours and the cells labeled with Hoechst 33342, a membrane permeable DNA dye, and ethidium homodimer, a membrane impermeable DNA dye (see Methods Section).

[7] = system: HT29 human colon cancer cells; assay: Microscale chip, HepG2-C3A cells in liver compartment and HT29 cells in target tissue compartment, LIVE/DEAD staining; type: cell-based; details: 24 hours; for efficacy against HT-29 colon cancer cells on chip: HepG2-C3A cells in liver compartment, HT-29 cells with mutant p53
Excerpt: as §3

CN[C@@H]1C[C@H]2O[C@@](C)([C@@H]1OC)n1c3ccccc3c3c4c(c5c6ccccc6n2c5c31)C(=O)NC4 [Staurosporine]
apoptosis of HCT116 cells on chip (APOPTAG) (HCT116 cells [1]): significant apoptosis (or cytotoxicity)
apoptosis of HepG2/C3A cells (APOPTAG) (HepG2/C3A cells [2]): caused significant apoptosis
cell death of HepG2/C3A cells (LIVE/DEAD) (HepG2/C3A cells [3]): clearly cause cell death
cell death of HCT116 cells on chip (LIVE/DEAD) (HCT116 cells [4]): Significant cell death; also recorded: significant apoptosis (or cytotoxicity)
apoptosis on chip (annexin V-FITC) [5]: caused significant apoptosis

O=c1[nH]cc(F)c(=O)[nH]1 [5-FU, 5-fluorouracil]
cell death of HCT-116 cells on chip without liver compartment cells [6]: caused substantial cell death
exposure before cytotoxicity was observed, traditional cell culture assay (HCT-116 cells; HCT-116 cells on coverslips): ≥ 48 h
cell death of HCT-116 cells, traditional cell culture assay (HCT-116 cells): triggered cell death

CC1=C(CC(=O)O)c2cc(F)ccc2/C1=C\c1ccc([S+](C)[O-])cc1 (centres unmarked) [Sulindac, sulindac sulfoxide]
efficacy against HT-29 colon cancer cells on chip [7]: effective
cell death of HT29 cells in target tissue compartment ([7]; One hundred micromoles, in the absence of the HepG2-C3A liver cells): minimal levels of cell death

O=c1[nH]c(=O)n(C2CCCO2)cc1F (centres unmarked) [Tegafur, 5-fluoro-1-(2-tetrahydrofuryl)-2,4(1H,3H)-pyrimidi-nedione]
cytotoxicity to HCT-116 cells on chip [6]: cytotoxic to HCT-1-16-cells in a dose dependent fashion
cell death of HCT-116 cells on chip without liver compartment cells [6]: did not cause significant cell death
cell death of HCT-116 cells, traditional cell culture assay (HCT-116 cells): ineffective
efficacy against HT-29 colon cancer cells on chip [7]: ineffective
